Publication PMC7385176, “Engineering a disulfide-gated switch in streptavidin enables reversible binding without sacrificing binding affinity” (Scientific Reports, 2020)
Read-outs that look alike come from different tables or passages of the source.

How the values were obtained:
[1] = Biotin-4-fluorescein on-rate assay; format: binding; settings: 25 °C
Method: Association kinetics were also monitored by utilizing B4F. […] 20 μL streptavidin was added and measurements were started immediately on a Horiba FluoroMax-4 spectrofluorometer with 490 nm excitation/525 nm emission and 2 and 15 nm slit widths, respectively, for the monochromator. Protein concentrations used were: 0.4, 0.8, 1.6, 2.4, 3.2 nM for wt; 0.8, 1.6, 3.2, 6.4 nM for oxidized M112; 0.4, 0.8, 1.6, 3.2 nM for reduced M112; 0.77, 1.5, 3.1, 6.1 nM for reduced M88 and 6.25, 12.5, 25, 50 nM for traptavidin. For oxidized M88, measurements were done in 60 μL total volume using 10 nM B4F and 50, 100, 200 and 400 nM M88.

[2] = Biotin-4-fluorescein off-rate assay (competitive, fluorescence quenching; Arrhenius extrapolation)
Method: Dissociation kinetics were measured with a competitive assay exploiting the fluorescence quenching of B4F upon binding to streptavidin[13],[30]. In a total volume of 200 μL, 50 nM streptavidin, 10 nM B4F (Invitrogen), 50 mM NaCl, 1 mM EDTA, 20 mM Tris pH 8, were incubated for 30 min. Biotin was added to 0.1 mM to prevent B4F re-association and fluorescence was monitored using a Tecan Infinite M200 plate reader with 485 nm excitation/525 nm emission for 12 h at 25 °C. The maximum, with all B4F unbound, and minimum, with all B4F bound, fluorescence was determined with similar mixtures in the absence of either streptavidin or biotin, respectively, and the fraction of B4F released at each time point was calculated as %B4FReleased=response-min/max-min×100% . […] The rapid phase was ignored and off-rate constants were determined by nonlinear least squares fitting of the data to the single exponential function y=1-e^kt .
High-temperature kinetics were measured by the same competitive assay but instead using a Horiba Jobin–Yvon FluoroMax-4 spectrofluorometer. To limit evaporation and condensation within the cuvette, it was filled to the top with 4 mL of solution using the same concentrations of reagents as above. Fluorescence was initially measured without streptavidin, giving the maximum, unquenched signal. Streptavidin was then added and allowed to equilibrate until a constant fluorescent signal was achieved, and unlabelled biotin was added to start the experiment. At these higher temperatures, the rapid release phase was more apparent and accounted for by fitting the data to the double exponential function y=max-ae^-kat-be^-kbt. The linear Arrhenius plot was generated by plotting ln(koff) against 1/temperature. A linear least squares fit to the function lnkoff=lnA-Ea/RT was used to extrapolate the dissociation constant at lower temperatures.

[3] = Thermostability assay (heating in SDS, SDS-PAGE of tetramer); format: physicochemical; settings: for denaturation of the tetramer: presence of biotin
Method: To assess thermostability, SDS was added to 2% to wild-type or previously oxidized M88 or M112 and was incubated in the presence or absence of 5 mM biotin and in the presence and absence of 200 mM β-mercaptoethanol for 15 min. The samples were heated at 75 or 95 °C for 1 h and aliquots taken every 5 min for the first 30 min, and then at 45 and 60 min. Samples from each time point were run on a 12% SDS-PAGE gel, which were than stained with Coomassie blue. Band intensity was quantified using ImageJ software and the fraction of protein that remained tetrameric was determined relative to time zero. The band intensities for a series of standards was determined to indicate the linear range for quantification.

[4] = cited from earlier work
[5] = Rate of disulfide bond formation (Alexa Fluor 633 maleimide labelling); format: physicochemical; settings: 10 mM GSSG
Excerpt: Protein disulfide bond formation was catalyzed by thiol-disulfide exchange with either oxidized glutathione (GSSG) or 2,2′-dipyridyldisulfide. Disulfide bonds were inferred by selectively labelling free Cys with Alexa Fluor 633 C5 maleimide (Invitrogen) and subsequent separation by Tricine SDS-PAGE[50]. Detection is based on both fluorescence and a mobility shift due to the large size of these labels (~ 1.3 kDa each, ~ 2.6 kDa if both cysteines in M88 or M112 react). Ratios of reactants were based on those previously described for saturation labelling. Because the N- and C-terminal tails are susceptible to degradation by trace proteases, leading to band heterogeneity in the gel, core-form versions of M88 and M112 were primarily used for this assay. […] Immediately after the run, fluorescence was measured with excitation by 635 nm laser and emission collected through a 665 nm long-pass filter on a Typhoon FLA 9,500 laser scanner (GE Healthcare).
To measure the time course of disulfide formation, streptavidin muteins were reduced with TCEP which was subsequently removed by centrifugal filtration. […] Fluorescence intensity of each band was quantified using ImageQuant software and the amount off free Cys at each timepoint was determined relative to the initial amount. […]

| Substance | decrease in rate of association compared to the reduced form of M88 [1] | decrease in rate of association compared to wild-type streptavidin [1] | kon ([1]; B4F, ± standard error) | change in B4F fluorescence (dissociation) ([2]; 25 °C, after 12 h) | rate of dissociation lower than wild-type streptavidin ([2]; 25 °C, extrapolated) | stability during kinetics measurement ([2]; 90 °C) | rate of dissociation relative to traptavidin ([2]; Arrhenius plot, 25–90 °C) | t1/2 ([2]; B4F, 25 °C, calculated as ln(2)/koff) | koff ([2]; B4F, 25 °C, extrapolated from the Arrhenius plot) | tetramer state after heating ([3]; 75 °C, without biotin, 60 min incubation) | denaturation of the tetramer ([3]; 95 °C, 60 min incubation) | melting temperature ([4]; apo-streptavidin) | state at boiling temperatures ([4]; presence of SDS) | melting temperature ([4]; streptavidin–biotin complex) | time to denature completely ([3]; 75 °C, absence of biotin) | time to complete denaturation ([3]; 95 °C, biotin absent) | increase in rate of dissociation for B4F, oxidized vs reduced M112 ([2]; 25 °C) | pseudo-first order rate constant of disulfide bond formation ([5]; 21 °C) | pseudo-first order rate constant of disulfide bond formation ([5]; 37 °C) |
| --- | --- | --- | --- | --- | --- | --- | --- | --- | --- | --- | --- | --- | --- | --- | --- | --- | --- | --- | --- |
| M88 oxidized: M88 (N49C/A86C streptavidin mutein) with the Cys-49/Cys-86 disulfide bond formed | 18.5 fold | 117 fold | 4.6 ± 0.3 × 10^5 M^-1 s^-1 | no change in B4F fluorescence measurable | 225 fold | appeared to be stable | approximately half | 18.3 ± 6.1 years | 1.2 ± 0.4 × 10^–9 s^-1 | remains tetrameric | no appreciable denaturation | – | – | – | – | – | – | – | – |
| Wild-type: 66-kDa homotetrameric biotin-binding protein from Streptomyces avidinii; obtained from Bio Basic | – | – | – | – | – | – | – | – | – | – | no appreciable denaturation | 75.5 °C | remains tetrameric and bound to biotin | 112.2 °C | ≤ 5 min | less than 1 min | – | – | – |
| M112: streptavidin mutein G26C/A46C with a Cys-26/Cys-46 disulfide bond on the N-terminal side of loop 3–4 | – | – | – | – | – | – | – | – | – | – | – | – | – | – | – | – | ~ 60 fold | 0.14 ± 0.02 h⁻¹ | 0.41 ± 0.06 h⁻¹ |
